{
  "source": "BigSolDB 2.1",
  "data": [
    {"molecule": "CCOC(=O)c1ccc(N)cc1", "values": [
      {"measurement": "solubility (mole fraction)", "setting": "in ethanol, 283.15 K", "result": 0.0522},
      {"measurement": "solubility (mole fraction)", "setting": "in ethanol, 287.15 K", "result": 0.0611},
      {"measurement": "solubility (mole fraction)", "setting": "in ethanol, 291.15 K", "result": 0.0712},
      {"measurement": "solubility (mole fraction)", "setting": "in ethanol, 295.15 K", "result": 0.0831},
      {"measurement": "solubility (mole fraction)", "setting": "in ethanol, 299.15 K", "result": 0.0982},
      {"measurement": "solubility (mole fraction)", "setting": "in ethanol, 303.15 K", "result": 0.115},
      {"measurement": "solubility (mole fraction)", "setting": "in ethanol, 307.15 K", "result": 0.135},
      {"measurement": "solubility (mole fraction)", "setting": "in ethanol, 311.15 K", "result": 0.16},
      {"measurement": "solubility (mole fraction)", "setting": "in ethanol, 315.15 K", "result": 0.191},
      {"measurement": "solubility (mole fraction)", "setting": "in ethanol, 318.15 K", "result": 0.221},
      {"measurement": "solubility (mole fraction)", "setting": "in ethanol, 321.15 K", "result": 0.251},
      {"measurement": "solubility (mole fraction)", "setting": "in ethanol, 324.15 K", "result": 0.289},
      {"measurement": "solubility (mole fraction)", "setting": "in ethanol, 327.15 K", "result": 0.328},
      {"measurement": "solubility (mole fraction)", "setting": "in isobutanol, 283.15 K", "result": 0.0281},
      {"measurement": "solubility (mole fraction)", "setting": "in isobutanol, 287.15 K", "result": 0.0328},
      {"measurement": "solubility (mole fraction)", "setting": "in isobutanol, 291.15 K", "result": 0.0392},
      {"measurement": "solubility (mole fraction)", "setting": "in isobutanol, 295.15 K", "result": 0.048},
      {"measurement": "solubility (mole fraction)", "setting": "in isobutanol, 299.15 K", "result": 0.0583},
      {"measurement": "solubility (mole fraction)", "setting": "in isobutanol, 303.15 K", "result": 0.071},
      {"measurement": "solubility (mole fraction)", "setting": "in isobutanol, 307.15 K", "result": 0.0879},
      {"measurement": "solubility (mole fraction)", "setting": "in isobutanol, 311.15 K", "result": 0.111},
      {"measurement": "solubility (mole fraction)", "setting": "in isobutanol, 315.15 K", "result": 0.14},
      {"measurement": "solubility (mole fraction)", "setting": "in isobutanol, 318.15 K", "result": 0.168},
      {"measurement": "solubility (mole fraction)", "setting": "in isobutanol, 321.15 K", "result": 0.204},
      {"measurement": "solubility (mole fraction)", "setting": "in isobutanol, 324.15 K", "result": 0.25},
      {"measurement": "solubility (mole fraction)", "setting": "in isobutanol, 327.15 K", "result": 0.303},
      {"measurement": "solubility (mole fraction)", "setting": "in isopentanol, 283.15 K", "result": 0.0335},
      {"measurement": "solubility (mole fraction)", "setting": "in isopentanol, 287.15 K", "result": 0.0371},
      {"measurement": "solubility (mole fraction)", "setting": "in isopentanol, 291.15 K", "result": 0.0439},
      {"measurement": "solubility (mole fraction)", "setting": "in isopentanol, 295.15 K", "result": 0.0529},
      {"measurement": "solubility (mole fraction)", "setting": "in isopentanol, 299.15 K", "result": 0.0632},
      {"measurement": "solubility (mole fraction)", "setting": "in isopentanol, 303.15 K", "result": 0.0757},
      {"measurement": "solubility (mole fraction)", "setting": "in isopentanol, 307.15 K", "result": 0.0917},
      {"measurement": "solubility (mole fraction)", "setting": "in isopentanol, 311.15 K", "result": 0.115},
      {"measurement": "solubility (mole fraction)", "setting": "in isopentanol, 315.15 K", "result": 0.145},
      {"measurement": "solubility (mole fraction)", "setting": "in isopentanol, 318.15 K", "result": 0.172},
      {"measurement": "solubility (mole fraction)", "setting": "in isopentanol, 321.15 K", "result": 0.206},
      {"measurement": "solubility (mole fraction)", "setting": "in isopentanol, 324.15 K", "result": 0.252},
      {"measurement": "solubility (mole fraction)", "setting": "in isopentanol, 327.15 K", "result": 0.305},
      {"measurement": "solubility (mole fraction)", "setting": "in methanol, 283.15 K", "result": 0.0528},
      {"measurement": "solubility (mole fraction)", "setting": "in methanol, 287.15 K", "result": 0.0629},
      {"measurement": "solubility (mole fraction)", "setting": "in methanol, 291.15 K", "result": 0.075},
      {"measurement": "solubility (mole fraction)", "setting": "in methanol, 295.15 K", "result": 0.0863},
      {"measurement": "solubility (mole fraction)", "setting": "in methanol, 299.15 K", "result": 0.103},
      {"measurement": "solubility (mole fraction)", "setting": "in methanol, 303.15 K", "result": 0.12},
      {"measurement": "solubility (mole fraction)", "setting": "in methanol, 307.15 K", "result": 0.141},
      {"measurement": "solubility (mole fraction)", "setting": "in methanol, 311.15 K", "result": 0.168},
      {"measurement": "solubility (mole fraction)", "setting": "in methanol, 315.15 K", "result": 0.2},
      {"measurement": "solubility (mole fraction)", "setting": "in methanol, 318.15 K", "result": 0.227},
      {"measurement": "solubility (mole fraction)", "setting": "in methanol, 321.15 K", "result": 0.259},
      {"measurement": "solubility (mole fraction)", "setting": "in methanol, 324.15 K", "result": 0.296},
      {"measurement": "solubility (mole fraction)", "setting": "in methanol, 327.15 K", "result": 0.335},
      {"measurement": "solubility (mole fraction)", "setting": "in n-butanol, 283.15 K", "result": 0.037},
      {"measurement": "solubility (mole fraction)", "setting": "in n-butanol, 287.15 K", "result": 0.0467},
      {"measurement": "solubility (mole fraction)", "setting": "in n-butanol, 291.15 K", "result": 0.0562},
      {"measurement": "solubility (mole fraction)", "setting": "in n-butanol, 295.15 K", "result": 0.0668},
      {"measurement": "solubility (mole fraction)", "setting": "in n-butanol, 299.15 K", "result": 0.0821},
      {"measurement": "solubility (mole fraction)", "setting": "in n-butanol, 303.15 K", "result": 0.0981},
      {"measurement": "solubility (mole fraction)", "setting": "in n-butanol, 307.15 K", "result": 0.118},
      {"measurement": "solubility (mole fraction)", "setting": "in n-butanol, 311.15 K", "result": 0.146},
      {"measurement": "solubility (mole fraction)", "setting": "in n-butanol, 315.15 K", "result": 0.176},
      {"measurement": "solubility (mole fraction)", "setting": "in n-butanol, 318.15 K", "result": 0.207},
      {"measurement": "solubility (mole fraction)", "setting": "in n-butanol, 321.15 K", "result": 0.241},
      {"measurement": "solubility (mole fraction)", "setting": "in n-butanol, 324.15 K", "result": 0.281},
      {"measurement": "solubility (mole fraction)", "setting": "in n-butanol, 327.15 K", "result": 0.323},
      {"measurement": "solubility (mole fraction)", "setting": "in n-propanol, 283.15 K", "result": 0.0441},
      {"measurement": "solubility (mole fraction)", "setting": "in n-propanol, 287.15 K", "result": 0.0521},
      {"measurement": "solubility (mole fraction)", "setting": "in n-propanol, 291.15 K", "result": 0.0605},
      {"measurement": "solubility (mole fraction)", "setting": "in n-propanol, 295.15 K", "result": 0.071},
      {"measurement": "solubility (mole fraction)", "setting": "in n-propanol, 299.15 K", "result": 0.085},
      {"measurement": "solubility (mole fraction)", "setting": "in n-propanol, 303.15 K", "result": 0.101},
      {"measurement": "solubility (mole fraction)", "setting": "in n-propanol, 307.15 K", "result": 0.121},
      {"measurement": "solubility (mole fraction)", "setting": "in n-propanol, 311.15 K", "result": 0.148},
      {"measurement": "solubility (mole fraction)", "setting": "in n-propanol, 315.15 K", "result": 0.179},
      {"measurement": "solubility (mole fraction)", "setting": "in n-propanol, 318.15 K", "result": 0.211},
      {"measurement": "solubility (mole fraction)", "setting": "in n-propanol, 321.15 K", "result": 0.245},
      {"measurement": "solubility (mole fraction)", "setting": "in n-propanol, 324.15 K", "result": 0.284},
      {"measurement": "solubility (mole fraction)", "setting": "in n-propanol, 327.15 K", "result": 0.326}
    ]}
  ]
}
